Literature values in US7578964B2, “Powder injection molding composition and method of use” (priority 2001, dated 2009).

Assays:
[1] = solute solubility in water at 298.15 K; NIST Chemistry WebBook
[2] = for Octanol - Water Partition Coefficient log POW: Handbook of Environmental Data on Organic Compounds, 4th Edition

SMILES | Henry's Law Constant k^0H [1] | Octanol - Water Partition Coefficient log POW [2] | log POW value ([2]; stated in text as known to those skilled in the art)
CC(C)=O [Acetone] | 30 mol/Kg*bar | −0.24 | 
c1ccccc1 [Benzene] | 0.18 mol/Kg*bar |  | 
ClC(Cl)(Cl)Cl [Carbon Tetrachloride] | 0.03 mol/Kg*bar | 2.64 | 
CCOCC [Diethyl Ether] | 0.78-1.2 mol/Kg*bar | 0.77 | 
C1COCCO1 [Dioxane] |  | −0.42 | 
CCO [Ethanol] | 200 mol/Kg*bar |  | 
CCOC(C)=O [Ethyl Acetate] | 8.9 mol/Kg*bar | 0.66 | 
CCCCCC [Hexane] | 0.001 mol/Kg*bar | 4 | 
CC(C)O [Isopropanol] | 130 mol/Kg*bar |  | 
CCC(C)=O [MEK] |  | 0.28 | 
CO [Methanol] |  | −0.82 | 
ClCCl [Methylene Chloride] | 0.41 mol/Kg*bar |  | 
C1CCOC1 [THF] |  | 0.45 | 
Cc1ccccc1 [Toluene] | 0.15 mol/Kg*bar |  | 
ClC=C(Cl)Cl [Trichloroethylene] | 0.11 mol/Kg*bar | 2.42 | 
O=C1CCCCCN1 [caprolactam, ε-caprolactam] |  |  | about 0.12
